Laboratory results reported in patent US11154529B2, “Phosphaplatin liquid formulations” (Phosplatin Therapeutics Inc., priority 2016, dated 2021).

Assay: Ready-to-use formulation stability at 2-8° C., 5 mg/mL (R,R)-pyrodach-2 in 10 mM Potassium Phosphate Buffer at pH 7.2, 10 mL vials
Type: physicochemical
Description: A scalable and commercially viable process for the manufacture of a ready-to-use formulation of (R,R)-pyrodach-2 in 10 mM buffer adjusted to a pH of 7.0-7.5 comprises the steps of: a) preparing a 10 mM aqueous solution of buffer; b) adding sufficient hydroxide base to effect neutralization of the added (R,R)-pyrodach-2 to reach a pH of about 7; c) adding (R,R)-pyrodach-2 and allowing it to dissolve; d) if necessary adding additional hydroxide to adjust the pH into a range of about 7.0-7.5; and e) filtering the solution under sterile conditions, filling the solution into glass vials, and covering it with a stopper and/or a cap. Stability data on two large batches of 5 mg/mL (R,R)-pyrodach-2 in 10 mM potassium phosphate buffer were generated. One such batch at pH=7.2 was evaluated at both 25° C./60% RH and refrigerated (2-8° C.) conditions, with data summarized in Table 4 and Table 5, respectively. […] Similar observations have been made for the ready-to-use liquid formulation at pH7.4, as illustrated in Table 6 and Table 7.
• Transfer 4564.6 mg±0.5 mg of potassium phosphate dibasic, trihydrate to a 2-L volumetric flask. • Fill flask to approximately 75% volume with water, swirl as needed to dissolve all solids. • Volumetrically transfer 32.0 mL of 1N KOH to flask. • Dilute flask to volume with water and mix well. • Record pH of final solution. This is the diluent. • Transfer 7653.1 mg±0.5 mg of (R,R)-pyrodach-2 to a compounding vessel. • Transfer 1500 mL of the diluent to the vessel and stir to dissolve solids. • Record pH of final solution. • Pass entire solution through a 0.22 μm sterile filter membrane into a sterile collection vessel. • Calculate (R,R)-pyrodach-2 solution concentration
To a […] glass beaker equipped with mechanical mixer was add 24645.5 g of sterile water for injection. With agitation 47.03 gm of dibasic potassium phosphate USP was added and the solids allowed to dissolve. To the stirred solution was added 253.8 gm of 1.00 N potassium hydroxide. Sterile water for injection USP (900.0 gm) was used as a rinse to facilitate both additions. With vigorous agitation, (R,R)-pyrodach-2 (201.87 gm) was slowly added and agitation continued until all of the solids dissolved. Sterile water for injection USP (900.0 gm) was used as a rinse to facilitate the addition. The pH was determined to be 6.7. A total of 85 mL of 1.00 N potassium hydroxide was added in 5.0 mL aliquots to adjust the pH to 7.3. The solution was sterile filtered through 0.22μ Millipore Millipack filter and aseptically filled, 10 ml top a vial in 10 mL in 10 cc Wheaton clear molded vails, stoppered with a 20 mm stopper and crimp seal capped.

Compound: O=P1(O)OP(=O)(O)[O][Pt]2([NH][C@@H]3CCCC[C@H]3[NH]2)[O]1 (stereo partly drawn) [(R,R)-pyrodach-2, (R,R)-trans-1,2-cyclohexanediamine-(dihydrogenpyrophosphato)platinum(II)]
- (DACH) Pt-diaquo (~RRT 0.3) (1 Month): 0.17%
- (DACH) Pt-monoaquo (~RRT 0.7) (1 Month): 0.84%
- Assay (Potency) (1 Month): 97.7%
- PT-112 Dimer (~RRT 4.0) (1 Month): 0.21%
- RRT 0.56 (1 Month): 0.11%
- Total Related Substances (1 Month): 1%
- pH (1 Month): 7.2
- (DACH) Pt-diaquo (~RRT 0.3) (2 Month): 0.09%
- (DACH) Pt-monoaquo (~RRT 0.7) (2 Month): 0.91%
- Assay (Potency) (2 Month): 100.1%
- PT-112 Dimer (~RRT 4.0) (2 Month): 0.25%
- RRT 0.56 (2 Month): 0.10%
- RRT 0.68 (2 Month): 0.06%
- Total Related Substances (2 Month): 1%
- pH (2 Month): 7.2
- (DACH) Pt-diaquo (~RRT 0.3) (3 Month): 0.18%
- (DACH) Pt-monoaquo (~RRT 0.7) (3 Month): 0.82%
- Assay (Potency) (3 Month): 98.2%
- PT-112 Dimer (~RRT 4.0) (3 Month): 0.31%
- RRT 0.56 (3 Month): 0.12%
- RRT 0.68 (3 Month): 0.05%
- RRT 3.1-3.2 (3 Month): 0.08%
- Total Related Substances (3 Month): 2%
- pH (3 Month): 7.2
- (DACH) Pt-diaquo (~RRT 0.3) (4 Month): 0.13%
- (DACH) Pt-monoaquo (~RRT 0.7) (4 Month): 0.88%
- Assay (Potency) (4 Month): 98.6%
- PT-112 Dimer (~RRT 4.0) (4 Month): 0.27%
- RRT 0.50 (4 Month): 0.05%
- RRT 0.56 (4 Month): 0.13%
- RRT 3.1-3.2 (4 Month): 0.07%
- Total Related Substances (4 Month): 2%
- pH (4 Month): 7.3
- (DACH) Pt-diaquo (~RRT 0.3) (6 Month): 0.18%
- (DACH) Pt-monoaquo (~RRT 0.7) (6 Month): 0.91%
- Assay (Potency) (6 Month): 98.4%
- PT-112 Dimer (~RRT 4.0) (6 Month): 0.28%
- RRT 0.56 (6 Month): 0.12%
- RRT 0.68 (6 Month): 0.05%
- RRT 3.1-3.2 (6 Month): 0.10%
- Total Related Substances (6 Month): 2%
- pH (6 Month): 7.3
- Particulate Matter (Light Obscuration) (6 Month, first value): 150 particles per container
- Particulate Matter (Light Obscuration) (6 Month, second value): 8 particles particles per container
- (DACH) Pt-diaquo (~RRT 0.3) (9 Month): 0.14%
- (DACH) Pt-monoaquo (~RRT 0.7) (9 Month): 1.05%
- Assay (Potency) (9 Month): 97.8%
- PT-112 Dimer (~RRT 4.0) (9 Month): 0.29%
- RRT 0.56 (9 Month): 0.16%
- RRT 0.68 (9 Month): 0.06%
- RRT 3.1-3.2 (9 Month): 0.10%
- Total Related Substances (9 Month): 2%
- pH (9 Month): 7.2
- (DACH) Pt-diaquo (~RRT 0.3) (12 Month): 0.20%
- (DACH) Pt-monoaquo (~RRT 0.7) (12 Month): 1.02%
- Assay (Potency) (12 Month): 97.8%
- PT-112 Dimer (~RRT 4.0) (12 Month): 0.29%
- RRT 0.50 (12 Month): 0.06%
- RRT 0.56 (12 Month): 0.16%
- RRT 0.68 (12 Month): 0.10%
- RRT 3.1-3.2 (12 Month): 0.16%
- Total Related Substances (12 Month): 2%
- pH (12 Month): 7.2
- Particulate Matter (Light Obscuration) (12 Month, first value): 236 particles per container
- Particulate Matter (Light Obscuration) (12 Month, second value): 4 particles particles per container
- (DACH) Pt-diaquo (~RRT 0.3) (15 Month): 0.15%
- (DACH) Pt-monoaquo (~RRT 0.7) (15 Month): 0.92%
- Assay (Potency) (15 Month): 98.7%
- PT-112 Dimer (~RRT 4.0) (15 Month): 0.29%
- RRT 0.50 (15 Month): 0.07%
- RRT 0.56 (15 Month): 0.19%
- RRT 0.68 (15 Month): 0.06%
- RRT 3.1-3.2 (15 Month): 0.22%
- Total Related Substances (15 Month): 2%
- pH (15 Month): 7.2
- (DACH) Pt-diaquo (~RRT 0.3) (18 Month): 0.15%
- (DACH) Pt-monoaquo (~RRT 0.7) (18 Month): 0.93%
- Assay (Potency) (18 Month): 100.3%
- PT-112 Dimer (~RRT 4.0) (18 Month): 0.31%
- RRT 0.50 (18 Month): 0.07%
- RRT 0.56 (18 Month): 0.19%
- RRT 0.68 (18 Month): 0.07%
- RRT 3.1-3.2 (18 Month): 0.19%
- RRT 3.54 (18 Month): 0.05%
- Total Related Substances (18 Month): 2%
- pH (18 Month): 7.3
- (DACH) Pt-diaquo (~RRT 0.3) (24 Month): 0.17%
- (DACH) Pt-monoaquo (~RRT 0.7) (24 Month): 0.82%
- Assay (Potency) (24 Month): 97.1%
- PT-112 Dimer (~RRT 4.0) (24 Month): 0.31%
- RRT 0.46 (24 Month): 0.06%
- RRT 0.50 (24 Month): 0.22%
- RRT 0.56 (24 Month): 0.09%
- RRT 0.68 (24 Month): 0.05%
- RRT 3.1-3.2 (24 Month): 0.22%
- RRT 3.54 (24 Month): 0.11%
- Total Related Substances (24 Month): 2%
- pH (24 Month): 7.2
- Particulate Matter (Light Obscuration) (24 Month, first value): 41 particles per container
- Particulate Matter (Light Obscuration) (24 Month, second value): 12 particles per container
- (DACH) Pt-diaquo (~RRT 0.3) (30 Month): 0.14%
- (DACH) Pt-monoaquo (~RRT 0.7) (30 Month): 0.96%
- Assay (Potency) (30 Month): 98.2%
- PT-112 Dimer (~RRT 4.0) (30 Month): 0.33%
- RRT 0.50 (30 Month): 0.17%
- RRT 0.56 (30 Month): 0.19%
- RRT 0.68 (30 Month): 0.08%
- RRT 3.1-3.2 (30 Month): 0.31%
- RRT 3.54 (30 Month): 0.10%
- Total Related Substances (30 Month): 2%
- pH (30 Month): 7.2
- Particulate Matter (Light Obscuration) (30 Month, first value): 62 particles per container
- Particulate Matter (Light Obscuration) (30 Month, second value): 6 particles particles per container
- (DACH) Pt-diaquo (~RRT 0.3) (36 Month): 0.12%
- (DACH) Pt-monoaquo (~RRT 0.7) (36 Month): 1.16%
- Assay (Potency) (36 Month): 97.8%
- PT-112 Dimer (~RRT 4.0) (36 Month): 0.36%
- RRT 0.46 (36 Month): 0.07%
- RRT 0.50 (36 Month): 0.23%
- RRT 0.56 (36 Month): 0.11%
- RRT 0.68 (36 Month): 0.09%
- RRT 3.1-3.2 (36 Month): 0.30%
- RRT 3.54 (36 Month): 0.14%
- Total Related Substances (36 Month): 3%
- pH (36 Month): 7.2
- (DACH) Pt-diaquo (~RRT 0.3) (Initial): 0.16%
- (DACH) Pt-monoaquo (~RRT 0.7) (Initial): 0.98%
- Assay (Potency) (Initial): 99.8%
- PT-112 Dimer (~RRT 4.0) (Initial): 0.19%
- RRT 0.56 (Initial): 0.13%
- RRT 0.68 (Initial): 0.05%
- Total Related Substances (Initial): 2%
- pH (Initial): 7.2
- Particulate Matter (Light Obscuration) (Initial, first value): 219 particles per container
- Particulate Matter (Light Obscuration) (Initial, second value): 11 particles per container
